Here are results for 8 compounds from patent US20250320288A1, “METHOD OF TREATING VITILIGO WITH INTERFERON-GAMMA ANTIBODY” (Elixiron Immunotherapeutics (Hong Kong), priority 2022, published 2025).

Data set [1] deals with primary melanocytes. As to the kind of experiment: Melanocyte cell viability after IFN-γ, chemokines, cell death inhibitors or 2A6Q, Day 2 and Day 7. The format is cell-based, human. The conditions noted are these: for rescue of IFN-γ induced melanocyte cell death (cell viability): melanocytes with IFN-γ, up to seven days. The method, then: To determine cell viability of melanocyte after treatment with IFN-γ, CXCL9, CXCL10, CXCL11, at Day 2, and Day 7, the cells were collected and seeded into 96-well plates. After adhesion, cells were treated with IFN-γ (0, 10, 100 ng/ml) with different compounds: 2A6Q, CXCL9, CXCL10, CXCL11, ROS scavenger (NAC), necroptosis inhibitor (NEC-1), pyroptosis inhibitor (VX-765), apoptosis inhibitor (QVD-OPH), Ferroptosis inhibitor (Liproxstaitin-1, Ferrostatin-1, DFO). Cell viability was measured using a CellTiter-Glo luminescent cell viability assay kit (Promega) according to the manufacturer's protocol. The […] of the final reaction product was measured using a luminometer (SpectraMax® iD3 Multi-Mode Microplate Reader (Molecular Devices). After calculation, the viability of control cells was 100%, and all others were normalized to control and shown as relative cell viability (%). Treatment dosage N-acetylcysteine (NAC; 0.05 mM, 1 mM), Necrostatin-1 (NEC-1; 20 μM, 2 μM), Belnacasan (VX-765; 50 μg/mL, 5 μg/mL), Quinoline-Val Asp-Difluorophenoxymethylketone (QVD-OPH; 10 μM, 2 μM), Liproxstaitin-1 (10 μM, 5 μM, 1 μM, 0.05 μM), Ferrostatin-1 (5 μM, 1 μM), Deferoxamine (DFO; 10 μM, […], 1 μM, 0.05 μM), 2A6Q (10 μg/mL), CXCL9 (10 ng/mL, 10 pg/mL), CXCL10 (10 ng/ml, 10 pg/mL), CXCL11(10 ng/mL, 10 pg/mL).

The subject of data set [2] is primary melanocytes. Nature of the data set: Cell morphology assay in melanocytes. The data set is classed as cell-based, human. The following applies: primary melanocytes, 7 days of treatment.
The conditions of data set [3]: cited from earlier work.

“Also recorded” adds a separate entry of the source.

Regarding `Clc1cccc(CN=C2Nc3ccccc3NC23CCNCC3)c1` [Liproxstatin-1], in the data set with primary melanocytes [1], the “rescue of IFN-γ induced melanocyte cell death (cell viability)” value (from here on “rescue”) was “can partially rescue”. Still for that read-out and setting: for `CC(=O)N[C@@H](CS)C(=O)O` [NAC, N-acetylcysteine] the value was “did not find a rescue effect; also recorded: unable to restore”.

Turning to `CN1C(=O)C(Cc2c[nH]c3ccccc23)NC1=S` (centres unmarked) [NEC-1, Necrostatin-1], the “rescue” value in the data set on primary melanocytes [1] was “unable to restore”. Consider `CC(C)[C@H](NC(=O)c1ccc2ccccc2n1)C(=O)N[C@@H](CC(=O)O)C(=O)COc1c(F)cccc1F` [QVDOPH, Quinoline-Val Asp-Difluorophenoxymethylketone], for which the “rescue” value was “unable to restore” in the data set on primary melanocytes [1] and “unable to rescue” in the data set on primary melanocytes [1] (listed as pan-caspase inhibitor). For the compound `CCO[C@@H]1OC(=O)C[C@@H]1NC(=O)[C@@H]1CCCN1C(=O)[C@@H](NC(=O)c1ccc(N)c(Cl)c1)C(C)(C)C` [VX-765, Belnacasan], the “rescue” value in the data set on primary melanocytes [1] was “unable to restore”.

Take “CXCL10: IFN-γ downstream cytokine added to melanocytes”: in the data set on primary melanocytes [1] (day 7 of treatment), the “effect on cell viability of melanocytes (individual cytokine)” value was “not CXCL9, CXCL10, or CXCL11 significantly decreases”.

Regarding IFN-α, the “morphology change in melanocyte (loss of dendrite, ballooning of cytoplasm)” value with primary melanocytes [2] is given as “not IFN-α was found to contributes to morphology change”.

As for “NI-0501: another anti-IFN-γ antibody, described in U.S. Pat. No. 7,700,098 B2”, the “Key Study Findings: mortalities” value in data set [3] (at all dose groups) is listed as “There were mortalities”. Further, the “Key Study Findings: GI tract infection caused by Shigella sp. and Campylobacter sp.” value in data set [3] (cynomolgus monkey, in vivo) is “infection was confirmed”. Moreover, the “Key Study Findings: monkeys early sacrificed because of severe clinical signs” value in data set [3] (from 18 monkeys) is 7 monkeys were early.
